Data taken from patent publication US10947285B2, “Compounds, compositions and uses thereof for improvement of bone disorders” (Amolyt Pharma, priority 2017, dated 2021).
Residues, ends and D or L forms follow the SMILES beside them. No end group written: not given here. *: point of attachment. Stearoyl = CCCCCCCCCCCCCCCCCC(=O)*

What was measured:
[1] = Pharmacokinetic in Göttingen minipigs after intravenous and subcutaneous injection; assay type: in vivo; conditions: 0.5 μmol/kg
Procedure: The peptide was reconstituted in saline (0.9% NaCl). Three Göttingen minipigs (approximately 8-10 months of age) were used per group. Intravenous doses were administered into an ear vein at the dose of 0.5 μmol net peptide/kg. Subcutaneous doses were administered into the right flank of each animal, also at the dose of 0.5 μmol net peptide/kg. Following dosing, serial whole blood samples (ca. 0.25 mL) were collected from a jugular vein into K2EDTA treated containers. Following each blood sample collection, samples were placed into a cooling block at 4° C. Samples were collected prior to dosing then at 5 and 30 minutes then 1, 2, 4, 8, 25, 48, 72 and 96 hours post dose for intravenous injection and at 15 and 30 minutes then 1, 2, 4, 8, 25, 48, 72 and 96 hours post dose for subcutaneous injection.
Blood samples were centrifuged at 10000×g for 2 minutes at 4° C. and resultant plasma aspirated off into clean fully, labelled tubes. Plasma samples were snap frozen following aspiration then stored at −80° C. Peptide extraction and analysis were performed as described in Example 9. The limit of quantification of this method is 0.0015 nmol/mL. All values below this limit of quantification are considered as zero.

[2] = tested on: ovariectomized (OVX) rats; test: Bone formation in ovariectomized rat, μCT of proximal tibia; assay type: in vivo, Sprague-Dawley rats; conditions: 6 weeks
Procedure: (§1) Effects on bone of three doses of HBD1 (3-11) with stearic acid at the N-terminus (C18:0) analog were tested in vivo in ovariectomized (OVX) rats, a recognized model for human osteoporosis, in particular postmenopausal osteoporosis. Each group included ten female Sprague-Dawley rats that were four months of age at the beginning of the in-life phase of the study. Treatment started six weeks after OVX surgery and lasted for six additional weeks. Groups were randomized before surgery according to body weight and tibial metaphysis Bone Mineral Density (BMD) as measured by peripheral quantitative computed tomography (pQCT) from Norland Stratec XCT Research SA equipment (Norland Stratec Medizintechnik, Birkenfeld, Germany).
(§2) The peptide was reconstituted in saline solution (0.9% NaCl) and administered subcutaneously twice a day at the doses of 0.8 mg/kg (low), 1.6 mg/kg (med) or 3.2 mg/kg (high) in a volume of 1 mL/kg. The control group was administered twice a day with saline by s.c. administration. Rats were weighed once a week and the volume of dosing solution administered was adjusted accordingly.
High-resolution micro-computed tomography (μCT) measurements using Sky Scan 1072 or 1172 High Resolution Scanner (Bruker microCT, Kontich, Belgium) were performed ex vivo in right proximal tibia at the end of the treatment period for measuring bone volume, bone cross-sectional dimensions and bone microarchitecture. FIGS. 5A, 5B and 5C show the percent increase from OVX animals HBD1 (3-11) with stearic acid at the N-terminus (C18:0) groups for following selected parameters: Bone Volume Fraction (BV/TV; %), Trabecular number (Tb.N; mm^−1) and Connectivity Density (Conn.D; mm^−3).

[3] = tested on: ovariectomized (OVX) rats; test: Bone biomechanical properties in ovariectomized rat (lumbar vertebrae compression, femoral neck cantilever bending); assay type: in vivo, Sprague-Dawley rats; conditions: 3.2 mg/kg BID s.c., 6 weeks, vs OVX vehicle
Procedure: as §1, §2
Bone biomechanical properties were determined by compression test using Instron 3343 biomechanical testing system (Instron, Norwood, Mass., USA). […]

[4] = Pharmacokinetic of HBD1 fragments in male Sprague Dawley rats after intravenous and subcutaneous injection; assay type: in vivo; conditions: 1 μmol net peptide/kg; for quantifiable exposure after administration by either dose route: iv and sc
Procedure: The peptides were reconstituted in saline (0.9% NaCl). Three male Sprague Dawley rats were used per group. Intravenous doses were administered into a lateral tail vein at the dose of 1 μmol net peptide/kg. Subcutaneous doses were administered into the right flank of each animal, also at the dose of 1 μmol net peptide/kg. Following dosing, serial whole blood samples (ca. 0.25 mL) were collected from a lateral tail vein into K2EDTA treated containers. Following each blood sample collection, samples were placed into a cooling block at 4° C. Samples were collected prior to dosing then at 2, 5, 15 and 30 minutes then 1, 2, 4, 6 and 8 and 24 hours post dose for intravenous injection and at 15 and 30 minutes then 1, 2, 4, 6, 8 and 24 hours post dose for subcutaneous injection.
Blood samples were centrifuged at 10000×g for 2 minutes at 4° C. and resultant plasma aspirated off into clean fully, labelled tubes. Plasma samples were snap frozen following aspiration then stored at −80° C. Peptides were extracted and analyzed as described in Example 9. The limits of quantification of these methods were 0.001 nmol/mL for cyclic HBD1 (3-11) and HBD1 (3-11) and 0.003 nmol/mL for HBD1 (1-13). All values below these limits of quantification were considered as zero.

[5] = Stability of HBD1 fragments in human plasma; assay type: in vitro ADME; conditions: 24 and 48 hours incubation at 37° C.
Procedure: The peptides were spiked at 1 μg/mL (peptide backbone) into pre-warmed human K2EDTA plasma (at 37° C.) and incubated for up to 48 hours. Aliquots of plasma were extracted at specific time points (0, 24 and 48 hours post spike). Extraction was performed with acetonitrile:water (75:25, v/v) for HBD1 (1-13), HBD1 (1-13) with palmitic acid at the N-terminus (C16:0), HBD1 (3-11) with palmitic acid at the N-terminus (C16:0)) and HBD1 (3-11) with stearic acid at the N-terminus (C18:0) or with acetonitrile:water:formic acid (75:25:0.1, v/v/v) for HBD1 (3-11) and cyclic HBD1 (3-11). The peptides were analyzed using developed LC (C18 reverse phase column)—positive ion electrospray MS/MS methods specific to each peptide. The peak area at each time point was expressed as a percentage of the value obtained for the t=0 minutes time point.

[6] = OVX rats, s.c. twice a day 0.8, 1.6 or 3.2 mg/kg, vs OVX vehicle, dose-dependent

CCCCCCCCCCCCCCCCCC(=O)N[C@@H](Cc1c[nH]cn1)C(=O)N[C@@H](CC(C)C)C(=O)NCC(=O)N[C@@H](CC(C)C)C(=O)N[C@@H](CCC(=O)O)C(=O)N[C@@H](CCC(=O)O)C(=O)N1CCC[C@H]1C(=O)N[C@@H](CCCCN)C(=O)N[C@@H](CCCCN)C(=O)O [SEQ ID NO: 73, C18:0-HLGLEEPKK] (Stearoyl-HLGLEEPKK-OH; C-terminus assumed)
duration of exposure after subcutaneous administration [1]: up to 25 hours
effect on bone in ovariectomized rat ([2]; OVX Sprague-Dawley rats, s.c. twice a day, 0.8, 1.6 or 3.2 mg/kg): has anabolic effect on bone
connectivity density (Conn.D) at tibial metaphysis [2, 6]: increased
percent bone volume fraction (BV/TV) at tibial metaphysis [2, 6]: increased
trabecular number (Tb.N) at tibial metaphysis [2, 6]: increased
bone strength (biomechanical properties of lumbar vertebrae and femoral neck) [3]: increased bone strength

CC(C)C[C@@H]1NC(=O)CNC(=O)[C@H](CC(C)C)NC(=O)[C@H](Cc2c[nH]cn2)NC(=O)[C@H](CCCCN)NC(=O)[C@H](CCCCN)NC(=O)[C@@H]2CCCN2C(=O)[C@H](CCC(=O)O)NC(=O)[C@H](CCC(=O)O)NC1=O [SEQ ID NO: 77, Cyclic (HLGLEEPKK)] (cyclo(EEPKKHLGL))
Tlast (last time point with detectable peptide) ([4]; iv, listed as Cyclic HBD1 (3-11)): 8 h
Tlast (last time point with detectable peptide) ([4]; sc, listed as Cyclic HBD1 (3-11)): 4 h
Tlast (last time point with detectable peptide) ([4]; sc, listed as cyclic HBD1 (3-11)): ≤ 4 h

HLGLEEPKK [SEQ ID NO: 10, HLGLEEPKK]
stability in human plasma (in words) [5]: very stable in human plasma
quantifiable exposure after administration by either dose route [4]: no quantifiable exposure

KHHLGLEEPKKLR [SEQ ID NO: 1, KHHLGLEEPKKLR, reference compound]
stability in human plasma (in words) [5]: markedly degraded in human plasma
quantifiable exposure after administration by either dose route [4]: no quantifiable exposure
